1 molecule from patent US10045980B2, “Inhibitor of p38 map kinase” (RESPIVERT LTD, priority 2014, dated 2018) can be followed below.

Experiment [1] deals with T1, Syk (Homo sapiens, UniProt P43405).
T1 construct: purchased Life Technologies
Put plainly: Syk enzyme inhibition (Z-LYTE FRET). Type of experiment: biochemical. As to the method: (§1) The enzyme inhibitory activities of the compound disclosed herein were determined by FRET using synthetic peptides labelled with both donor and acceptor fluorophores (Z-LYTE, Life Technologies, Paisley, UK).
(§2) The relevant enzyme (1000 ng/mL, 1400 ng/mL or 2000 ng/mL respectively, 2.5 μL) was incubated with the test compound (either 40 μg/mL, 12 μg/mL, 4 μg/mL, 1.2 μg/mL, 0.4 μg/mL, 0.12 μg/mL, 0.04 μg/mL, 0.012 μg/mL, 0.004 μg/mL or 0.0012 μg/mL, 2.5 μL each) for 2 h at RT. The FRET peptides (8 μM, 2.5 μL), and appropriate ATP solutions (2.5 μL, 800 μM for c-Src, and 60 μM ATP for HCK and Syk) were then added to the enzyme/compound mixtures and incubated for 1 h at RT. Development reagent (protease, 5 μL) was added for 1 h prior to detection in a fluorescence microplate reader (EnVision, Perkin Elmer).
(§3) In all cases, the site-specific protease cleaves non-phosphorylated peptide only and eliminates the FRET signal. Phosphorylation levels of each reaction were calculated using the ratio of coumarin emission (donor) over fluorescein emission (acceptor), for which low ratios indicate high phosphorylation and high ratios indicate low phosphorylation levels.

Experiment [2] concerns BEAS2B cells infected with human rhinovirus RV16. Put plainly: Rhinovirus-induced IL-8 release. As to conditions: FIG. 9. It is filed as cell-based. As to the method: Human rhinovirus RV16 is obtained from the American Type Culture Collection (Manassas, Va.). Viral stocks are generated by infecting MRC5 cells with HRV until 80% of the cells were cytopathic.
BEAS2B cells are infected with HRV at an MOI of 1.2 and incubated for 1 h at 33° C. with gentle shaking for to promote absorption. The cells are then washed with PBS, fresh media added and the cells are incubated for a further 72 h. The supernatant is collected for assay of IL-8 concentrations using a Duoset ELISA development kit (R&D systems, Minneapolis, Minn.). Compounds are added 2 h before HRV infection and 1 h after infection when non-infected HRV is washed out.

The test system of experiment [3] is PBMCs. Nature of the experiment: Cell mitosis assay. Type of experiment: cell-based. As to conditions: Homo sapiens, PBMC; At 5 ug/mL; PHA-treated PBMCs, 20 h exposure; Mean ± SEM. The protocol: Peripheral blood mononucleocytes (PBMCs) from healthy subjects were separated from whole blood (Quintiles, London, UK) using a density gradient (Histopaque-1077, Sigma-Aldrich, Poole, UK). The PBMCs (3 million cells per sample) were subsequently treated with 2% PHA (Sigma-Aldrich, Poole, UK) for 48 h, followed by a 20 h exposure to varying concentrations of test compounds. At 2 h before collection, PBMCs were treated with demecolcine (0.1 μg/mL; Life Technologies, Paisley, UK,) to arrest cells in metaphase.

For experiment [4], the target named is T2, Hck (Homo sapiens, UniProt P08631).
T2 construct: purchased Life Technologies
Nature of the experiment: Hck enzyme inhibition (Z-LYTE FRET). It is filed as biochemical. As to the method: as §1, §2, §3

Experiment [5] deals with sputum macrophages from COPD patients. Nature of the experiment: Cytokine production in LPS-treated sputum macrophages from COPD patients. It is filed as cell-based. The following applies: Homo sapiens, Macrophage; at 0.1 μg/mL; LPS 1 μg/mL, 18 h; read-out: Percent Inhibition IL-6. As to the method: Patients with COPD inhaled a nebulised solution of 3% (w/v) hypertonic saline using an ultrasonic nebuliser (Devilbiss, Carthage, Mo.) with tidal breathing for 5 min. This procedure was repeated a maximum of three times until enough sputum was obtained. The sputum samples were homogenized and mixed vigorously using a vortex mixer in 0.02% v/v dithiothreitol (DTT) solution. The samples were re-suspended in PBS (40 mL) followed by centrifugation at 1500 rpm at 4° C. for 10 min to obtain sputum cell pellets. The pellets were washed with PBS (40 mL). […]
Where appropriate, 1 μL of a solution containing either the test compound or reference article at the stated concentrations (either 0.1 μg/mL, 0.01 μg/mL, or 0.001 μg/mL) or alternatively 1 μL of DMSO as the vehicle control was added to each well (200 μL in media) and the cells were incubated for 2 h. […] After washing with 200 μL wash buffer per well, the beads were resuspended in sheath fluid (150 μL) and analyzed immediately. The level of each analyte in the supernatant was calculated using Xcel Fit software with a 4 or 5-parameter equation using each standard curve. The inhibitions of each cytokine production were calculated at each concentration by comparison with vehicle control.

The structures appear in SMILES notation.

As a reminder, the IC50 is the concentration that gives 50% inhibition. A higher IC50 goes with weaker potency. The term inhibition denotes the percentage by which the read-out fell short of the control.

T2 sequence (P08631 22-526): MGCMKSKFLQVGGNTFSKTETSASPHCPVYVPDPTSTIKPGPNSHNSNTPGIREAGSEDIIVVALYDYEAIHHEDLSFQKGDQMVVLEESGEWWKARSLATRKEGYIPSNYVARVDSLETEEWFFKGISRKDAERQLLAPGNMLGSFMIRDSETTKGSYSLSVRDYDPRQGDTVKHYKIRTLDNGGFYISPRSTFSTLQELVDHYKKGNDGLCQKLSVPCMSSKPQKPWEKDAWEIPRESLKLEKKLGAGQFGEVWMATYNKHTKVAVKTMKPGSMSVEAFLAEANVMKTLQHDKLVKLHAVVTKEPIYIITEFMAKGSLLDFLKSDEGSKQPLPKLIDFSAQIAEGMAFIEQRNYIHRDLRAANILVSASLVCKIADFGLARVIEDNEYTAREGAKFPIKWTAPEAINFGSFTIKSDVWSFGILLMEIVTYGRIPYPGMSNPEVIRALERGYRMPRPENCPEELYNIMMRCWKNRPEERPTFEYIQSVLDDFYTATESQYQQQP

For `CCc1cncc(Nc2cc(COc3ccc(NC(=O)Nc4cc(C(C)(C)C)nn4-c4ccc(C)cc4)c4ccccc34)ccn2)n1` [Compound of the invention, 1-(3-(tert-butyl)-1-(p-tolyl)-1H-pyrazol-5-yl)-3-(4-((2-((6-ethylpyrazin-2-yl)amino)pyridin-4-yl)methoxy)naphthalen-1-yl)urea], the results for the IC50 in experiment [1] and in experiment [4] were over 16000 nM and 55 nM, respectively. For the same molecule, the “inhibition of HRV-induced IL-8” value in experiment [2] is given as “dose-dependent inhibition”. The same molecule returned an inhibition at 5 µg/mL in experiment [3] of 18 ± 7%. Also, in experiment [5], the inhibition at 0.1 µg/mL stood at 48 ± 9%.
